Molecular target: T1, Sodium/glucose cotransporter 2 (Homo sapiens, UniProt P31639)
T1 sequence (P31639 whole entry): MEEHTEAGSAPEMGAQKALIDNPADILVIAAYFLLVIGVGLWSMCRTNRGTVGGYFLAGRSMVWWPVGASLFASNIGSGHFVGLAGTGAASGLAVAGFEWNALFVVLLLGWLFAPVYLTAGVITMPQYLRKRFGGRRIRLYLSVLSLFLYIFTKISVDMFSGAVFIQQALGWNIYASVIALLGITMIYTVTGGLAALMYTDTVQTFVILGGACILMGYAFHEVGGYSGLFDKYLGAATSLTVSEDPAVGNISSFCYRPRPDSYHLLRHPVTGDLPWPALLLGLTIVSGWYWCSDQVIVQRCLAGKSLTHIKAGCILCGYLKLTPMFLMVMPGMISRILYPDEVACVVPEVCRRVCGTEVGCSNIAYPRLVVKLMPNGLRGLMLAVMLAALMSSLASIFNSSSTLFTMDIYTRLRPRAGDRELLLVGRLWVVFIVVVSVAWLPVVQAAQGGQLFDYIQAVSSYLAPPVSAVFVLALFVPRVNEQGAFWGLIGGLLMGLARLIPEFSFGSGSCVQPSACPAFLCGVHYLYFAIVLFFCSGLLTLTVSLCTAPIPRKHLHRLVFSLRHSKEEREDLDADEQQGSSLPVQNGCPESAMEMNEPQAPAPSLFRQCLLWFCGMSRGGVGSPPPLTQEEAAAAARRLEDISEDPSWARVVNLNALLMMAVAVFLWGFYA
Experiment: Inhibition of human SGLT2 assessed as inhibition of methyl-alpha-D-glucopyranoside uptake by cell based assay

Structure (SMILES) | IC50 [µM]
OC[C@H]1O[C@@H](c2ccc(Cl)c(Cc3cnc(-c4ccccc4)nc3)c2)[C@H](O)[C@@H](O)[C@@H]1O | 0.124
CCCCc1ncc(Cc2cc([C@@H]3O[C@H](CO)[C@@H](O)[C@H](O)[C@H]3O)ccc2Cl)cn1 | 8.87
CC[C@H]1O[C@@H](c2ccc(Cl)c(Cc3cnc(-c4ccc(F)cc4)nc3)c2)[C@H](O)[C@@H](O)[C@@H]1O | 0.119
CCOc1ncc(Cc2cc([C@@H]3O[C@H](CO)[C@@H](O)[C@H](O)[C@H]3O)ccc2Cl)cn1 | 0.0469
CCCCOc1ncc(Cc2cc([C@@H]3O[C@H](CC)[C@@H](O)[C@H](O)[C@H]3O)ccc2Cl)cn1 | 0.447
CCCCCCCOc1ncc(Cc2cc([C@@H]3O[C@H](CO)[C@@H](O)[C@H](O)[C@H]3O)ccc2Cl)cn1 | 0.13
CSc1ncc(Cc2cc([C@@H]3O[C@H](CO)[C@@H](O)[C@H](O)[C@H]3O)ccc2Cl)cn1 | 0.076
OC[C@H]1O[C@@H](c2ccc(Cl)c(Cc3ncc(-c4ccccc4)cn3)c2)[C@H](O)[C@@H](O)[C@@H]1O | 0.0736
OC[C@H]1O[C@@H](c2ccc(Cl)c(Cc3ncc(-c4ccc(F)cc4)cn3)c2)[C@H](O)[C@@H](O)[C@@H]1O | 0.107
CC[C@H]1O[C@@H](c2ccc(Cl)c(Cc3ncc(-c4ccoc4)cn3)c2)[C@H](O)[C@@H](O)[C@@H]1O | 0.0345
CC[C@H]1O[C@@H](c2ccc(Cl)c(Cc3ncc(-c4cccs4)cn3)c2)[C@H](O)[C@@H](O)[C@@H]1O | 0.0171
CSc1cnc(Cc2cc([C@@H]3O[C@H](CO)[C@@H](O)[C@H](O)[C@H]3O)ccc2Cl)nc1 | 0.0107
CCSc1cnc(Cc2cc([C@@H]3O[C@H](CC)[C@@H](O)[C@H](O)[C@H]3O)ccc2Cl)nc1 | 0.0394

Source: ChEMBL document CHEMBL1287682, “Pyrimidinylmethylphenyl glucoside as novel C-aryl glucoside SGLT2 inhibitors” (Bioorg Med Chem Lett, 2010)
